Results as given in US20050209157A1, “Short bioactive peptides and methods for their use” (priority 2001, published 2005).
Values after ≈ are worked out from the molar mass of the structure shown. Where two headings read alike, the source gives them in different places. No end group written: not given here.

What was measured:
[1] = tested on: Pseudomonas aeruginosa ATCC 27853; assay: Antimicrobial assay I, modified protocol (tryptic soy broth), MBC; details: minimum bactericidal concentration, Table 4
Description: (§3) The preparation of all media, stock solutions, and dilutions took place in a laminar flow hood to prevent contamination. Bacterial cells were freshly grown on antibiotic medium 2 agar slants (pH 7.0 at 25° C.). Bacteria were suspended and diluted in antibiotic medium 3 to about 10^4 cfu/ml and used as the inoculum. Sample solutions (100 μl/well) were added to plates according to the plate layout. Inoculum (100 μl/well) was added to achieve a final concentration of 5×10^3 cfu/ml. Negative controls received 100 μl saline and 100 μl growth medium. Positive controls received 100 μl saline and 100 μl inoculum. Bacterial plates were incubated at 37° C. for 24 hours.
(§4) However, the data for Table 4 were obtained with a modified protocol wherein the medium was tryptic soy broth, inocolum strength was approximately 10^4 CFU per ml, and values determined were minimum bactericidal concentrations (MBC) or minimum fungicidal concentrations (MFC).
(§5) MBC or MFC values are in μg/mL. E. coli is Escherichia coli ATCC accession number 25922; P. aerug is Pseudomonas aeruginosa ATCC accession number 27853, S. aur. is Stapholococcus aureus ATCC accession number 25923; Candida is Candida albicans ATCC accession number 10231.

[2] = tested on: Escherichia coli ATCC 25922; assay: as above; details: minimum bactericidal concentration, Table 4
Description: as §3, §4, §5

[3] = tested on: Candida albicans ATCC 10231; assay: Antimicrobial assay I, modified protocol (tryptic soy broth), MFC; details: minimum fungicidal concentration, Table 4
fungal = assay: Presently preferred antifungal peptides, selected from the MIC/MBC data; format: cell-based; details: X = preferred
Description: The peptide's “length” is the number of amino acid residues in the sequence.

[4] = tested on: Stapholococcus aureus ATCC 25923; assay: Antimicrobial assay I, modified protocol (tryptic soy broth), MBC; details: minimum bactericidal concentration, Table 4
E. coli UB1005 = format: cell-based, Escherichia coli; details: mean of three; 16 to 20 hours at 35° C.; in µg/mL
BMKC = assay: Anti-cancer assay, MTT, LD50; format: cell-based; details: BMKC cloned melanoma line, 24 hours with peptide
Description: (§1) Numbers are LD50 values (μg/mL).

PC3 = assay: Anti-cancer assay, MTT, LD50; format: cell-based; details: 24 hours with peptide, prostate adenocarcinoma
Description: as §1

SW480 = assay: Anti-cancer assay, MTT, LD50; format: cell-based; details: SW480 colon adenocarcinoma line, 24 hours with peptide
Description: as §1

HeLaS3 = assay: Anti-cancer assay, MTT, LD50; format: cell-based; details: 24 hours with peptide, cervical carcinoma
Description: as §1

H1299 = assay: Anti-cancer assay, MTT, LD50; format: cell-based; details: 24 hours with peptide, lung large cell carcinoma
Description: as §1

MCF7 = assay: Anti-cancer assay, MTT, LD50; format: cell-based; details: MCF7 breast adenocarcinoma line, MTT, 24 hours with peptide
Description: as §1

S. typhimurium 14028S = format: cell-based, Salmonella typhimurium; details: mean of three; 16 to 20 hours at 35° C.; in µg/mL
S. pneumoniae C718 = assay: Antimicrobial assays II, NCCLS broth microdilution MIC; format: cell-based, Streptococcus pneumoniae; details: mean of three
in vitro [5] = format: cell-based, human; details: human, human red blood cells
S. pneumoniae C719 = assay: Antimicrobial assays II, NCCLS broth microdilution MIC; format: cell-based, Streptococcus pneumoniae; details: mean of three, in µg/mL
S. pyogenes ATCC19615 = assay: as above; format: cell-based, Streptococcus pyogenes; details: mean of three, in µg/mL
S. epidermidis C621 = format: cell-based, Staphylococcus epidermidis; details: mean of three; 16 to 20 hours at 35° C.
S. pyogenes M76 = assay: Antimicrobial assays II, NCCLS broth microdilution MIC; format: cell-based, Streptococcus pyogenes; details: mean of three; 16 to 20 hours at 35° C.
S. aureus (MRSA) = format: cell-based, Staphylococcus aureus; details: mean of three; 16 to 20 hours at 35° C.
WI38 = details: MTT, 24 hours with peptide; for WI38 LD50: normal fibroblast line
P. acne ATCC 6919 = assay: Antimicrobial assays II, NCCLS broth microdilution MIC; format: cell-based, Propionibacterium acnes; details: mean of three, in µg/mL
P. aeruginosa H774 = format: cell-based, Pseudomonas aeruginosa; details: P. aeruginosa H744; nalidixic acid + peptide at ¼ MIC; 0.5 or less = synergy
Outline: (§2)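 Efflux-mutant strains were tested with two-fold serial dilutions of chloramphenicol or nalidixic acid, alone and with peptide held at ¼ of its own MIC.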

P. aeruginosa H374 [6] = format: cell-based, Pseudomonas aeruginosa; details: for MIC Cm-comb.: MIC of chloramphenicol with peptide at ¼ MIC; for MIC Nal-comb.: MIC of nalidixic acid with peptide at ¼ MIC; for FIC Index: 0.5 or less = synergy
Outline: as §2

P. aeruginosa = format: cell-based, Pseudomonas aeruginosa; details: P. aeruginosa H744; MIC of nalidixic acid with peptide at ¼ MIC
Outline: as §2

in vitro [7] = details: human, WI38 normal lung fibroblast cells
P. aeruginosa H374 [8] = format: cell-based, Pseudomonas aeruginosa; details: mean of three; 16 to 20 hours at 35° C.
[9] = tested on: human red blood cells (RBC); assay: in vitro; format: cell-based; details: hemolytic assay, concentration at 50% hemolysis, 1 hour at 37° C.
[10] = tested on: yeast (Saccharomyces cerevisiae); assay: Antimicrobial assay I, yeast assay in RPMI 1640; format: cell-based; details: RPMI 1640 media
[11] = tested on: Staphylococcus aureus ATCC 6538; assay: Antimicrobial assay I, MIC by OD measurement; format: cell-based; details: 37° C. for 24 hours, absorbance 620 nm
[12] = tested on: Pseudomonas aeruginosa ATCC 9027; assay: Antimicrobial assay I, MIC by OD measurement; format: cell-based; details: 37° C. for 24 hours, absorbance 620 nm
[13] = pH 7, hemolytic assay, concentration at 50% hemolysis, 1 hour at 37° C., read-out: LD50
[14] = chloramphenicol + peptide at ¼ MIC
[15] = nalidixic acid + peptide at ¼ MIC, FIC=0.25+MIC comb/MIC alone
[16] = LD50 WI38, WI38 normal lung fibroblast line, MTT, 24 hours with peptide

Compound	Anti-fungal (preferred peptide) (fungal)	LD50 BMKC (BMKC)	PC3 LD50 (PC3)	LD50 SW480 (SW480)	HeLaS3 LD50 (HeLaS3)	H1299 LD50 (H1299)	LD50 MCF7 (MCF7)	S. pneumoniae MIC (S. pneumoniae C718)	S. pneumoniae MIC (S. pneumoniae C719)	S. pyogenes MIC (S. pyogenes ATCC19615)	S. epidermidis C621 MIC (S. epidermidis C621)	S. pyogenes M76 MIC (S. pyogenes M76)	S. aureus (MRSA) MIC (S. aureus (MRSA))	WI38 LD50 (WI38)	P. acne MIC (P. acne ATCC 6919)	FIC Index (P. aeruginosa H774)	MIC Cm-comb. (P. aeruginosa H374 [6])	MIC Nal-comb. (P. aeruginosa H374 [6])	FIC Index (P. aeruginosa H374 [6]; [14])	FIC Index (P. aeruginosa H374 [6]; [15])	other results
FAKLLAKLAK-NH2 [compound 123]	X (Preferred antifungal peptides can be selected as having MIC or MBC values of less than or equal to about 25 μg/ml)	–	–	–	–	–	–	–	–	–	–	–	–	–	–	–	–	–	–	–	MBC P. aerug A.27853 [1]: INACT; MBC E. coli A.25922 [2]: 40 µg/mL; MFC Candida A.10231 [3]: 25 µg/mL; MBC S. aur A.25923 [4]: INACT
FALALKALKKLKKALKKAL-NH2 [compound 27]	X (Preferred antifungal peptides can be selected as having MIC or MBC values of less than or equal to about 25 μg/ml)	–	–	–	–	–	–	–	–	–	–	–	–	–	–	–	–	–	–	–	MBC P. aerug A.27853 [1]: 8 µg/mL; MBC E. coli A.25922 [2]: 10 µg/mL; MFC Candida A.10231 [3]: >50 µg/mL; MBC S. aur A.25923 [4]: 8 µg/mL
FALALKAKKL-NH2 [compound 182]	X (Preferred antifungal peptides can be selected as having MIC or MBC values of less than or equal to about 25 μg/ml)	–	–	–	–	–	–	–	–	–	–	–	–	–	–	–	–	–	–	–	–
CC(C)C[C@H](NC(=O)[C@H](C)NC(=O)[C@H](CC(C)C)NC(=O)[C@H](CCCCN)NC(=O)[C@H](C)NC(=O)[C@H](CC(C)C)NC(=O)[C@H](CCCCN)NC(=O)[C@H](CCCCN)NC(=O)[C@H](C)NC(=O)[C@H](CC(C)C)NC(=O)[C@H](CCCCN)NC(=O)[C@H](C)NC(=O)[C@H](CC(C)C)NC(=O)[C@H](CCCCN)NC(=O)[C@H](CCCCN)NC(=O)[C@H](C)NC(=O)[C@@H](N)Cc1ccccc1)C(=O)O [P61]	–	140 µg/mL	66 µg/mL	100 µg/mL	170 µg/mL	127 µg/mL	105 µg/mL	128 µg/mL	32	16	8 µg/mL	16 µg/mL	32 µg/mL	93 µg/mL	2	1.25	16 µg/mL	5000 µg/mL	1.25	1.25	E. coli UB1005 MIC (E. coli UB1005): 2; S. typhimurium 14028S MIC (S. typhimurium 14028S): 4; HC50 at 1 h (in vitro [5]; [13]): 390 µg/mL; MIC Nal-comb. (P. aeruginosa): 624 µg/mL; CC50 at 24 h (in vitro [7]; [16]): 93 µg/mL (≈ 50.1 µM); P. aeruginosa H374 MIC (P. aeruginosa H374 [8]): 4 µg/mL
FAKLLAKALKKFL-NH2 [compound 118]	X (Preferred antifungal peptides can be selected as having MIC or MBC values of less than or equal to about 25 μg/ml)	–	–	–	–	–	–	–	–	–	–	–	–	–	–	–	–	–	–	–	MBC P. aerug A.27853 [1]: 25 µg/mL; MBC E. coli A.25922 [2]: 8 µg/mL
CC(C)C[C@H](NC(=O)[C@H](C)NC(=O)[C@H](CCCCN)NC(=O)[C@H](CC(C)C)NC(=O)[C@H](C)NC(=O)[C@H](CC(C)C)NC(=O)[C@H](C)NC(=O)[C@H](CC(C)C)NC(=O)[C@H](CCCCN)NC(=O)[C@H](C)NC(=O)[C@H](CC(C)C)NC(=O)[C@H](CCCCN)NC(=O)[C@H](CCCCN)NC(=O)[C@H](C)NC(=O)[C@H](CC(C)C)NC(=O)[C@H](CCCCN)NC(=O)[C@H](CCCCN)NC(=O)[C@H](CC(C)C)NC(=O)[C@H](CCCCN)NC(=O)[C@H](CCCCN)NC(=O)[C@H](C)NC(=O)[C@H](CC(C)C)NC(=O)[C@H](CCCCN)NC(=O)[C@H](CCCCN)NC(=O)[C@H](C)NC(=O)[C@@H](N)Cc1ccccc1)C(=O)N[C@@H](C)C(=O)N[C@@H](CC(C)C)C(=O)N[C@@H](CCCCN)C(=O)N[C@@H](C)C(=O)O [compound 100]	X (Preferred antifungal peptides can be selected as having MIC or MBC values of less than or equal to about 25 μg/ml)	–	–	–	–	–	–	–	–	–	–	–	–	–	–	–	–	–	–	–	–
FAKLAKKLL-NH2 [P60]	–	> (> indicates greater than 1000)	> (> indicates greater than 1000)	> (> indicates greater than 1000)	> (> indicates greater than 1000)	> (> indicates greater than 1000)	> (> indicates greater than 1000)	128 µg/mL	>128	8	4 µg/mL	8 µg/mL	32 µg/mL	> (> indicates greater than 1000)	4	1.25	4 µg/mL	1250 µg/mL	0.5	0.5	LD50 [9]: > (> indicates greater than 1000); LD50 WI38 (WI38; WI38 normal lung fibroblast line): > (> indicates greater than 1000); MIC Nal-comb. (P. aeruginosa): 624 µg/mL; yeast (MIC or MFC) [10]: 200 µg/mL; staph6538 (MIC) [11]: 200 µg/mL; paerug9027 (MIC) [12]: 100 µg/mL
FAKKLAKKLKKLAKLALAK-NH2 [P41]	–	290 µg/mL	140 µg/mL	120 µg/mL	185 µg/mL	245 µg/mL	98 µg/mL	64 µg/mL	32	8	4 µg/mL	8 µg/mL	64 µg/mL	175 µg/mL	4	1.25	16 µg/mL	5000 µg/mL	1.25	1.25	E. coli UB1005 MIC (E. coli UB1005): 2; S. typhimurium 14028S MIC (S. typhimurium 14028S): 4; HC50 at 1 h (in vitro [5]; [13]): 40 µg/mL; MIC Nal-comb. (P. aeruginosa): 624 µg/mL; CC50 at 24 h (in vitro [7]; [16]): 175 µg/mL; P. aeruginosa H374 MIC (P. aeruginosa H374 [8]): 4 µg/mL; staph6538 (MIC) [11]: 10 µg/mL; paerug9027 (MIC) [12]: 10 µg/mL
FAKLLAKALKKLL-NH2 [P55]	–	16 µg/mL	47 µg/mL	14 µg/mL	15 µg/mL	7 µg/mL	16 µg/mL	8 µg/mL	4	2	2 µg/mL	4 µg/mL	4 µg/mL	32 µg/mL	4	1.25	16 µg/mL	5000 µg/mL	1.25	1.25	HC50 at 1 h (in vitro [5]; [13]): 20 µg/mL; MIC Nal-comb. (P. aeruginosa): 624 µg/mL; CC50 at 24 h (in vitro [7]; [16]): 32 µg/mL; yeast (MIC or MFC) [10]: 25 µg/mL; staph6538 (MIC) [11]: 5 µg/mL; paerug9027 (MIC) [12]: 5 µg/mL
VALALKALKKLLKKLKKLAKKAL-NH2 [compound 510]	X (Preferred antifungal peptides can be selected as having MIC or MBC values of less than or equal to about 25 μg/ml)	–	–	–	–	–	–	–	–	–	–	–	–	–	–	–	–	–	–	–	HC50 at 1 h (in vitro [5]; pH 7, Table 26, valine substitution, read-out: Hemolysis RBC LD50): 10 µg/mL; CC50 at 24 h (in vitro [7]; WI-38 LD50, Table 26, valine substitution): 77 µg/mL
